Assay results as given in patent publication US20200071773A1, “TUMOR SIGNATURE FOR METASTASIS, COMPOSITIONS OF MATTER METHODS OF USE THEREOF” (Massachusetts Eye and Ear Infirmary, priority 2017, published 2020).
“Also recorded” adds a separate entry of the source.

Tests used:
Format in all cases: cell-based, human
[1] = tested on: SCC9 cells; test: scRNA-seq p-EMT gene expression score of treated SCC9 cells; settings: scRNA-seq 4 hours after treatment, relative to vehicle, TGFβ 10 ng/mL, inhibitors: 1 μM A-83-01, or DMH-1, A-83-01, CHIR99021 and Y-27632
Method: RNA-seq of Cell Lines. For scRNA-seq, cells were harvested, stained for viability, and sorted into 96-well plates, as described above. cDNA synthesis, library construction, and sequencing were also performed as described. For bulk RNA, RNA was isolated from 1,000 pooled cells using RNEasy Micro Kit (Qiagen).
(§1) TGFβ Treatment and TGFBI Overexpression. For drug treatment experiments, SCC9 cells were grown in vehicle (4 μM HCl with 1 μg/mL BSA), TGFβ, or TGFβ-inhibitor. For TGFβ-treated cells, 10 ng/mL recombinant TGFβ1 (R&D Systems, Minneapolis, Minn.) or TGFβ3 (R&D systems) was applied. Cells in the TGFβ-inhibitor condition were either grown in 3:1 F12:DMEM (ThermoFisher Scientific) with 1 μM A-83-01 (Tocris Bioscience, Bristol, UK) or small airway basal medium (Lonza, Basel, Switzerland) with four inhibitors of the TGFβ pathway: 1 μM DMH-1, 1 μM A-83-01, 1 μM CHIR99021 (Tocris Bioscience), and 10 μM Y-27632 (Selleck Chemicals, Houston, Tex.). For scRNA-seq, cells in each condition were harvested 4 hours after treatment. […]
Defining Cell and Sample Scores. […] However, such initial scores may be confounded by cell complexity, as cells with higher complexity have more genes detected (i.e. less zeros) and consequently would be expected to have higher cell scores for any gene-set. […] First, all analyzed genes are binned into 25 bins of equal size based on their aggregate expression levels (Ea). […]

[2] = tested on: SCC9 cells; test: Matrigel invasion assay
Method: TGFβ Treatment and TGFBI Overexpression. For drug treatment experiments, SCC9 cells were grown in vehicle (4 μM HCl with 1 μg/mL BSA), TGFβ, or TGFβ-inhibitor. For TGFβ-treated cells, 10 ng/mL recombinant TGFβ1 (R&D Systems, Minneapolis, Minn.) or TGFβ3 (R&D systems) was applied. Cells in the TGFβ-inhibitor condition were either grown in 3:1 F12:DMEM (ThermoFisher Scientific) with 1 μM A-83-01 (Tocris Bioscience, Bristol, UK) or small airway basal medium (Lonza, Basel, Switzerland) with four inhibitors of the TGFβ pathway: 1 μM DMH-1, 1 μM A-83-01, 1 μM CHIR99021 (Tocris Bioscience), and 10 μM Y-27632 (Selleck Chemicals, Houston, Tex.). For scRNA-seq, cells in each condition were harvested 4 hours after treatment. For bulk RNA-seq, cells were harvested 2, 4, or 6 days after treatment and titrated for analysis. For matrigel invasion assay and cell proliferation assays, cells were maintained in the given conditions for the duration of the experiment.
Matrigel Invasion Assay. Matrigel invasion assay was performed as previously described (Puram et al., 2012). […] Cells on the lower surface of the membrane were fixed with methanol, stained with crystal violet, and counted in a blinded manner. […]
Matrigel Invasion Assay. […] Invaded cells in each well were counted in a blinded manner across four distinct high powered fields and averaged. Error was calculated as SEM for a representative experiment.

[3] = tested on: SCC9 cells; test: CellTiter-Glo cell proliferation assay; settings: relative to vehicle
Method: as §1
Cell Proliferation Assay. […] Cells were lysed on days 2, 4, and 6 by adding CTG reagent (Promega), and point luminescence was measured via the BioTek Synergy HTX Platereader (BioTek, Winooski, Vt.). […] CTG luminescence values for individual wells were normalized by subtracting background luminescence (mean luminescence values for wells containing PBS, with CTG reagent added), adjusting for 2 μM adenosine triphosphate (ATP) luminescence measured on the same 96-well plate, and normalizing by numbers of plated cells in each condition (as measured by T0 luminescence).
Cell Proliferation Assay. […] Error was calculated as SEM for a representative experiment.

TGFβ
p-EMT program / p-EMT gene expression score [1]: coherent induction; also recorded: induce a p-EMT-like program
TGFβ response (invasiveness) after genetic inactivation of TGFBI ([2]; SCC9 TGFBI CRISPR knockout cells versus mock infected): abrogated
relative invasiveness ([2]; SCC9 cells, 24 hours, relative to vehicle): increased
relative proliferation [3]: reduced

B1: TGF4β3: recombinant TGFβ3 (R&D systems), CAF-related ligand (protein, UniProt P10600 301-412, looked up)
Transforming growth factor …: ALDTNYCFRNLEENCCVRPLYIDFRQDLGWKWVHEPKGYYANFCSGPCPYLRSADTTHSTVLGLYNTLNPEASASPCCVPQDLEPLTILYYVGRTPKVEQLSNMVVKSCKCS
p-EMT program / p-EMT gene expression score [1]: increased
